Assay results as given in patent US8551937B2, “Peptide having an extending action for half-life of object peptide in plasma” (priority 2008, dated 2013).
Where a SMILES comes first, the peptide text is derived from it. Bridges are numbered along the chain shown (N, C = ends).

How the values were obtained:
in vivo = details: male, SD, rat, iv, 10 nmol/kg
Description: The experiment was carried out using rats into which polyethylene tube (PE-50 manufactured by Clay Adams) was previously inserted into thigh artery under an anesthetized condition with Nembutal. As to a test system, male SD strain rats (Nippon Charles River) of 7 weeks age were used where one group comprised 3 rats. Native CNP-22 or chimeric CNP in a dose of 10 nmol/kg was administered into tail vein of the rat and the blood before the administration and until 60 minutes after the administration was collected by a polyethylene tube inserted into the thigh artery. To the collected blood were added EDTA (manufactured by Dojin Laboratories) and aprotinin (manufactured by Bayer) as a stabilizer and an anti-coagulant, respectively and the plasma was separated therefrom by centrifugal separation. CNP immunoreactivity concentration in plasma was measured by a competitive radioimmunoassay (RIA). At that time, a rabbit polyclonal antibody (#2) which specifically recognizes the ring partial structure of the native CNP-22 was used as an antibody and, as a labeled compound, ^125I-[Tyr^0] CNP was used.

[1] = Motilin immunoreactivity concentration in plasma, half-life after intravenous administration (Example 6); assay type: in vivo, rat; details: for half-life: SD, rat, plasma, 10 nmol/kg, male rats, N = 3, read-out: T½ Mean Value
Description: The experiment was carried out using rats into which polyethylene tube (PE-50 manufactured by Clay Adams) was previously inserted into thigh artery under an anesthetized condition with Nembutal. As to a test system, male SD strain rats (Nippon Charles River) of 7 weeks age were used where one group comprised 3 rats. Human type motilin or a derivative thereof in a dose of 10 nmol/kg was administered into tail vein of the rat and the blood before the administration and until 60 minutes after the administration was collected by a polyethylene tube inserted into the thigh artery. To the collected blood were added EDTA (manufactured by Dojin Laboratories) and aprotinin (manufactured by Bayer) as a stabilizer and an anti-coagulant, respectively and the plasma was separated therefrom by centrifugal separation.

[2] = Motilin immunoreactivity concentration in plasma, half-life after intravenous administration (Example 8); details: SD, rat, in vivo, 10 nmol/kg
Method in brief: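 Male SD rats (7 weeks, n=3/group) received human motilin or derivative at 10 nmol/kg i.v. via tail vein; arterial blood was sampled up to 60 min, with EDTA and aprotinin added. Plasma motilin immunoreactivity was measured by competitive RIA using a rabbit polyclonal antibody against native motilin residues 1–12 and ^125I-[Tyr^7] human motilin tracer.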

With `CC[C@H](C)[C@@H]1NC(=O)[C@H](CCCNC(=N)N)NC(=O)[C@H](CC(=O)O)NC(=O)[C@H](CC(C)C)NC(=O)[C@H](CCCCN)NC(=O)[C@H](CC(C)C)NC(=O)CNC(=O)[C@H](Cc2ccccc2)NC(=O)[C@@H](NC(=O)[C@H](CCCNC(=N)N)NC(=O)[C@@H]2CCCN2C(=O)[C@H](CCC(N)=O)NC(=O)[C@H](CC(C)C)NC(=O)[C@H](CCCCN)NC(=O)[C@H](C)NC(=O)[C@@H]2CCCN2C(=O)[C@@H]2CCCN2C(=O)[C@H](CCCCN)NC(=O)[C@H](CCCCN)NC(=O)[C@H](CO)NC(=O)[C@H](CCC(=O)O)NC(=O)[C@H](CCCCN)NC(=O)[C@H](CCCNC(=N)N)NC(=O)[C@H](CCC(N)=O)NC(=O)[C@H](CCC(N)=O)NC(=O)[C@@H](N)C(C)C)CSSC[C@@H](C(=O)O)NC(=O)CNC(=O)[C@H](CC(C)C)NC(=O)CNC(=O)[C@H](CO)NC(=O)[C@H](CCSC)NC(=O)[C@H](CO)NC(=O)CNC1=O` [Chimeric CNP (G)] (H-VQQRKESKKPPAKLQPRCFGLKLDRIGSMSGLGC-OH; disulfide 18-34; N-terminus and C-terminus assumed) the half-life (in vivo) was 17.8 min.
For `CC[C@H](C)[C@@H]1NC(=O)[C@H](CCCNC(=N)N)NC(=O)[C@H](CC(=O)O)NC(=O)[C@H](CC(C)C)NC(=O)[C@H](CCCCN)NC(=O)[C@H](CC(C)C)NC(=O)CNC(=O)[C@H](Cc2ccccc2)NC(=O)[C@@H](N)CSSC[C@@H](C(=O)N[C@H](C(=O)N[C@@H](CCC(N)=O)C(=O)N[C@@H](CCC(N)=O)C(=O)N[C@@H](CCCNC(=N)N)C(=O)N[C@@H](CCCCN)C(=O)N[C@@H](CCC(=O)O)C(=O)N[C@@H](CO)C(=O)N[C@@H](CCCCN)C(=O)N[C@@H](CCCCN)C(=O)N2CCC[C@H]2C(=O)N2CCC[C@H]2C(=O)N[C@@H](C)C(=O)N[C@@H](CCCCN)C(=O)N[C@@H](CC(C)C)C(=O)N[C@@H](CCC(N)=O)C(=O)N2CCC[C@H]2C(=O)N[C@@H](CCCNC(=N)N)C(=O)O)C(C)C)NC(=O)CNC(=O)[C@H](CC(C)C)NC(=O)CNC(=O)[C@H](CO)NC(=O)[C@H](CCSC)NC(=O)[C@H](CO)NC(=O)CNC1=O` [Chimeric CNP (C)] (H-CFGLKLDRIGSMSGLGCVQQRKESKKPPAKLQPR-OH; disulfide 1-17; N-terminus and C-terminus assumed), the half-life (in vivo) was 15 min.
With `CC[C@H](C)[C@@H]1NC(=O)[C@H](CCCNC(=N)N)NC(=O)[C@H](CC(=O)O)NC(=O)[C@H](CC(C)C)NC(=O)[C@H](CCCCN)NC(=O)[C@H](CC(C)C)NC(=O)CNC(=O)[C@H](Cc2ccccc2)NC(=O)[C@@H](N)CSSC[C@@H](C(=O)N[C@H](C(=O)N[C@@H](CCC(N)=O)C(=O)N[C@@H](CCC(N)=O)C(=O)N[C@@H](CCCNC(=N)N)C(=O)N[C@@H](CCCCN)C(=O)N[C@@H](CCC(=O)O)C(=O)N[C@@H](CO)C(=O)N[C@@H](CCCCN)C(=O)N[C@@H](CCCCN)C(=O)N2CCC[C@H]2C(=O)N2CCC[C@H]2C(=O)N[C@@H](C)C(=O)N[C@@H](CCCCN)C(=O)N[C@@H](CC(C)C)C(=O)N[C@@H](CCC(N)=O)C(=O)N2CCC[C@H]2C(=O)N[C@@H](CCCNC(=N)N)C(N)=O)C(C)C)NC(=O)CNC(=O)[C@H](CC(C)C)NC(=O)CNC(=O)[C@H](CO)NC(=O)[C@H](CCSC)NC(=O)[C@H](CO)NC(=O)CNC1=O` [Chimeric CNP (I)] (H-CFGLKLDRIGSMSGLGCVQQRKESKKPPAKLQPR-NH2; disulfide 1-17; N-terminus assumed) the half-life (in vivo) was 14.5 min.
With `CC[C@H](C)[C@H](NC(=O)[C@@H]1CCCN1C(=O)[C@@H](NC(=O)[C@@H](N)Cc1ccccc1)C(C)C)C(=O)N[C@@H](Cc1ccccc1)C(=O)N[C@H](C(=O)N[C@@H](Cc1ccc(O)cc1)C(=O)NCC(=O)N[C@@H](CCC(=O)O)C(=O)N[C@@H](CC(C)C)C(=O)N[C@@H](CCC(N)=O)C(=O)N[C@@H](CCCNC(=N)N)C(=O)N[C@H](C(=O)N[C@@H](CCC(N)=O)C(=O)N[C@@H](CCC(N)=O)C(=O)N[C@@H](CCCNC(=N)N)C(=O)N[C@@H](CCCCN)C(=O)N[C@@H](CCC(=O)O)C(=O)N[C@@H](CO)C(=O)N[C@@H](CCCCN)C(=O)N[C@@H](CCCCN)C(=O)N1CCC[C@H]1C(=O)N1CCC[C@H]1C(=O)N[C@@H](C)C(=O)N[C@@H](CCCCN)C(=O)N[C@@H](CC(C)C)C(=O)N[C@@H](CCC(N)=O)C(=O)N1CCC[C@H]1C(=O)N[C@@H](CCCNC(=N)N)C(=O)O)C(C)C)[C@@H](C)O` [Chimeric motilin (D)] (H-FVPIFTYGELQRVQQRKESKKPPAKLQPR-OH; N-terminus and C-terminus assumed) the half-life [1] was 8.9 min and the half-life ([2]; male, iv) was 8.9 min.
Molecule `CC[C@H](C)[C@H](NC(=O)[C@@H]1CCCN1C(=O)[C@@H](NC(=O)[C@@H](N)Cc1ccccc1)C(C)C)C(=O)N[C@@H](Cc1ccccc1)C(=O)N[C@H](C(=O)N[C@@H](Cc1ccc(O)cc1)C(=O)NCC(=O)N[C@@H](CCC(=O)O)C(=O)N[C@@H](CC(C)C)C(=O)N[C@@H](CCC(N)=O)C(=O)N[C@@H](CCCNC(=N)N)C(=O)N[C@@H](CCC(N)=O)C(=O)N[C@@H](CCCNC(=N)N)C(=O)N[C@@H](CCCCN)C(=O)N[C@@H](CCC(=O)O)C(=O)N[C@@H](CO)C(=O)N[C@@H](CCCCN)C(=O)N[C@@H](CCCCN)C(=O)N1CCC[C@H]1C(=O)N1CCC[C@H]1C(=O)N[C@@H](C)C(=O)N[C@@H](CCCCN)C(=O)N[C@@H](CC(C)C)C(=O)N[C@@H](CCC(N)=O)C(=O)N1CCC[C@H]1C(=O)N[C@@H](CCCNC(=N)N)C(=O)O)[C@@H](C)O` [Chimeric motilin (E)] (H-FVPIFTYGELQRQRKESKKPPAKLQPR-OH; N-terminus and C-terminus assumed) has a half-life [1] of 8.03 min.
In the case of `CC[C@H](C)[C@H](NC(=O)[C@@H]1CCCN1C(=O)[C@@H](NC(=O)[C@@H](N)Cc1ccccc1)C(C)C)C(=O)N[C@@H](Cc1ccccc1)C(=O)N[C@H](C(=O)N[C@@H](Cc1ccc(O)cc1)C(=O)NCC(=O)N[C@@H](CCC(=O)O)C(=O)N[C@@H](CC(C)C)C(=O)N[C@@H](CCC(N)=O)C(=O)N[C@@H](CCCNC(=N)N)C(=O)N[C@@H](CCSC)C(=O)N[C@@H](CCC(N)=O)C(=O)N[C@@H](CCC(=O)O)C(=O)N[C@@H](CCCCN)C(=O)N[C@@H](CCC(=O)O)C(=O)N[C@@H](CCCNC(=N)N)C(=O)N[C@@H](CC(N)=O)C(=O)N[C@@H](CCCCN)C(=O)NCC(=O)N[C@@H](CCC(N)=O)C(=O)O)[C@@H](C)O` [Native Motilin, reference compound], the half-life [1] is reported as 3.26 min and the half-life ([2]; intravenous, male rats, N = 3, read-out: T½ Mean Value) is reported as 3.26 min.
With `CC[C@H](C)[C@H](NC(=O)[C@@H]1CCCN1C(=O)[C@@H](NC(=O)[C@@H](N)Cc1ccccc1)C(C)C)C(=O)N[C@@H](Cc1ccccc1)C(=O)N[C@H](C(=O)N[C@@H](Cc1ccc(O)cc1)C(=O)NCC(=O)N[C@@H](CCC(=O)O)C(=O)N[C@@H](CC(C)C)C(=O)N[C@@H](CCC(N)=O)C(=O)N[C@@H](CCCNC(=N)N)C(=O)N[C@@H](CO)C(=O)N[C@@H](CCCCN)C(=O)N[C@@H](CCCCN)C(=O)N1CCC[C@H]1C(=O)N1CCC[C@H]1C(=O)N[C@@H](C)C(=O)N[C@@H](CCCCN)C(=O)N[C@@H](CC(C)C)C(=O)N[C@@H](CCC(N)=O)C(=O)N1CCC[C@H]1C(=O)N[C@@H](CCCNC(=N)N)C(=O)O)[C@@H](C)O` [Chimeric motilin (G)] (H-FVPIFTYGELQRSKKPPAKLQPR-OH; N-terminus and C-terminus assumed) the half-life [1] was 5.25 min and the “disappearance half-time extending action in vivo compared with native motilin” value ([1]; rats) was “unable to be confirmed”.
